The record followed here is patent US8247573B2, “Substituted N-(2-mercaptopyridin-3-yl)amides as KCNQ2/3 modulators” (Gruenenthal GmbH, priority 2009, dated 2012).

Experiment [1] has as its system mice. In words: Formalin test in mice. Type of experiment: in vivo. Conditions: 4.64 mg/kg, phase 2 (chronic pain), change versus vehicle control. The protocol:
The formalin test (Dubuisson, D. and Dennis, S. G., 1977, Pain, 4, 161-174) is a model for acute and chronic pain. A single formalin injection into the dorsal side of one rear paw is used to induce a biphase nociceptive response in experimental animals allowed to move freely, and the response is recorded by observation of three clearly distinguishable behaviour patterns. The response comprises two phases: phase 1=immediate response (duration up to 10 min; shaking of paw, licking), phase 2=delayed response (after a rest phase; likewise shaking of paw, licking; duration up to 60 min). […] In the experiments presented here the chronic pain component (phase 2) was evaluated.
Formalin is administered subcutaneously in a volume of 20 μl and a concentration of 1% into the dorsal side of the right rear paw of each animal. The specific behavioural changes, such as lifting, shaking or licking the paw (score 3, Dubuisson & Dennis, 1977), were observed and recorded during the observation period of 21 to 24 min after formalin injection. […]
Based on the quantification of the pain behaviour, the effect of the substance in the formalin test was determined as the change in comparison to the control as a percentage. […]

The target in experiment [2] is T1, KCNQ2/3 channels (Homo sapiens, UniProt O43525+O43526).
T1 construct: expressed in transfected cells; host or cells: CHO-K1
Put plainly: Fluorescence assay using a voltage-sensitive dye (fluorimetry). In kind it is cell-based. To be noted: CHO-K1 cells expressing KCNQ2/3; for EC50: agonistic activity; for Emax: relative to retigabine = 100%, negative values = antagonistic, read-out: Fluorimetry % efficacy (I/EC50, retigabine = 100%). As for the experimental part:
Pharmacological Experiments Fluorescence Assay Using a Voltage-Sensitive Dye
Human CHO-K1 cells expressing KCNQ2/3 channels are cultivated adherently at 37° C., 5% CO2 and 95% humidity in cell culture bottles (e.g. 80 cm^2 TC flasks, Nunc) with DMEM-high glucose (Sigma Aldrich, D7777) including 10% FCS (PAN Biotech, e.g. 3302-P270521) or alternatively MEM Alpha Medium (1×, liquid, Invitrogen, #22571), 10% foetal calf serum (FCS) (Invitrogen, #10270-106, heat-inactivated) and the necessary selection antibiotics.
Before being seeded out for the measurements, the cells are washed with a 1×DPBS buffer without Ca^2+/Mg^2+ (e.g. Invitrogen, #14190-094) and detached from the bottom of the culture vessel by means of Accutase (PAA Laboratories, #L11-007) (incubation with Accutase for 15 min at 37° C.). The cell count then present is determined using a CASY™ cell counter (TCC model, Schärfe System) in order subsequently to apply 20,000 to 30,000 cells/well/100 μl of the described nutrient medium, depending on density optimisation for the individual cell line, to 96-well measuring plates of the Corning™ CellBIND™ type (flat clear-bottom black polystyrene microplates, #3340). Incubation is then carried out for one hour at room temperature, without gassing or adjusting the humidity, followed by incubation for 24 hours at 37° C., 5% CO2 and 95% humidity.
The voltage-sensitive fluorescent dye from the Membrane Potential Assay Kit (Red™ bulk format part R8123 for FLIPR, MDS Analytical Technologies™) is prepared by dissolving the contents of a vessel of Membrane Potential Assay Kit Red Component A in 200 ml of extracellular buffer (ES buffer, 120 mM NaCl, 1 mM KCl, 10 mM HEPES, 2 mM CaCl2, 2 mM MgCl2, 10 mM glucose; pH 7.4). After removal of the nutrient medium, the cells are washed with 200 μl of ES buffer, then covered with a layer of 100 μl of the dye solution prepared above and incubated for 45 min at room temperature with exclusion of light.
The fluorescence measurements are carried out with a BMG Labtech FLUOstar™, BMG Labtech NOVOstar™ or BMG Labtech POLARstar™ instrument (525 nm excitation, 560 nm emission, bottom-read mode). After incubation of the dye, 50 μl of the substances to be tested in the desired concentrations, or 50 μl of ES buffer for control purposes, are introduced into separate cavities of the measuring plate and incubated for 30 min at room temperature whilst being shielded from light. The fluorescence intensity of the dye is then measured for 5 min and the fluorescence value F1 of each well is thus determined at a given, constant time. 15 μl of a […] KCl solution […] are then added to each well. The change in fluorescence is subsequently measured until all relevant measured values have been obtained (mainly […]). At a given time after KCl application, a fluorescence value F2 is determined, in this case at the time of the fluorescence peak.
For calculation, the fluorescence intensity F2 is compared with the fluorescence intensity F1, and the agonistic activity of the target compound on the potassium channel is determined therefrom. F2 and F1 are calculated as follows: […]
In order to determine whether a substance has an agonistic activity,
[formula] is determined by adding to the reaction batch only the buffer solution instead of the substance to be tested, determining the value F1K of the fluorescence intensity, adding the potassium ions as described above and measuring a value F2K of the fluorescence intensity. Then F2K and F1K are calculated as follows: […]
A substance has an agonistic activity on the potassium channel if
Independently of the comparison of
[formula] it is also possible to conclude that a target compound has an agonistic activity if an increase in
[formula] is to be observed as the dosage of the target compound increases.
Calculations of EC50 values are carried out with the aid of Prism v4.0 software (GraphPad Softwares™).

Usually EC50 stands for the concentration giving half of the maximal effect. A high value points to a need for much substance. Regarding `O=C(Cc1cccs1)Nc1cccnc1SCCS(=O)(=O)c1cccc(C(F)(F)F)c1` [Example 3, 2-Thiophen-2-yl-N-[2-[2-[[3-(trifluoromethyl)phenyl]sulfonyl]-ethylsulfanyl]-pyridin-3-yl]acetamide], in experiment [1], the “Formalin test in mice IV Effect @ dose [mg/kg]” value worked out at 87% @ 4.64. Besides, in experiment [2], the midpoint of the response, the EC50, lay at 31 nM and the Emax was found to be 164%.
For the compound `O=C(Cc1cc2ccccc2s1)Nc1cccnc1SCCS(=O)(=O)c1cccc(C(F)(F)F)c1` [Example 59, 2-(Benzo[b]thiophen-2-yl)-N-[2-[2-[[3-(trifluoromethyl)phenyl]sulfonyl]-ethylsulfanyl]-pyridin-3-yl]acetamide], in experiment [2], the EC50 was 925 nM and the Emax is 139%.
For `O=C(Cc1ccccn1)Nc1cccnc1SCCS(=O)(=O)c1cccc(C(F)(F)F)c1` [Example 60, 2-Pyridin-2-yl-N-[2-[2-[[3-(trifluoromethyl)phenyl]sulfonyl]-ethylsulfanyl]-pyridin-3-yl]acetamide], in that order: 1020 nM and 101%.
With `CC(C)(C)CC(=O)Nc1cccnc1SCCSc1ccc(F)cc1` [Example 61, N-[2-[2-[(4-Fluorophenyl)sulfanyl]-ethylsulfanyl]-pyridin-3-yl]-3,3-dimethyl butyramide], in experiment [2], the response was half-maximal at 27.5 nM (EC50) and the Emax was found to be 129%.
In the case of `O=C(CC1CC2CCC1C2)Nc1cccnc1SCCS(=O)(=O)c1cccc(C(F)(F)F)c1` (centres unmarked) [Example 62, 2-(5-Bicyclo[2.2.1]heptanyl)-N-[2-[2-[[3-(trifluoromethyl)phenyl]sulfonyl]-ethylsulfanyl]-pyridin-3-yl]acetamide], in experiment [2], the EC50 was determined as 23.5 nM and the Emax worked out at 168%.
`CC(C)(C)CC(=O)Nc1cccnc1SCCOc1ccc(F)cc1` [Example 63, N-[2-[2-(4-Fluorophenoxy)-ethylsulfanyl]-pyridin-3-yl]-3,3-dimethyl butyramide]: in experiment [2], the EC50 was determined as 546 nM and the Emax was determined as 119%.
Regarding `O=C(Nc1cccnc1SCCOc1ccc(F)cc1)c1ccc(F)c(F)c1` [Example 64, 3,4-Difluoro-N-[2-[2-(4-fluorophenoxy)-ethylsulfanyl]-pyridin-3-yl]benzamide], in experiment [2], the EC50 came to 200 nM and the Emax was 49%.
On to `O=C(Nc1cccnc1SCCCc1ccc(F)cc1)c1ccc(F)c(F)c1` [Example 65, 3,4-Difluoro-N-[2-[3-(4-fluorophenyl)-propylsulfanyl]-pyridin-3-yl]benzamide], for which, in experiment [2], the EC50 is 480 nM and the Emax amounted to 148%.
With `CC(C)(C)CC(=O)Nc1cccnc1SCCCc1ccc(F)cc1` [Example 66, N-[2-[3-(4-Fluorophenyl)-propylsulfanyl]-pyridin-3-yl]-3,3-dimethyl butyramide], in experiment [2], the response was half-maximal at 184 nM (EC50) and the Emax was 176%.
Take `O=C(CC1CCCCCC1)Nc1cccnc1SCCS(=O)(=O)c1ccc(F)cc1` [Example 67, 2-Cycloheptyl-N-[2-[2-[(4-fluorophenyl)sulfonyl]-ethylsulfanyl]-pyridin-3-yl]acetamide]: in experiment [2], a half-maximal effect (EC50) was put at 18 nM and the Emax came out at 114%.
As to `O=C(Nc1cccnc1SCCS(=O)(=O)c1cccc(C(F)(F)F)c1)C(F)(F)C1CCCCC1` [Example 68, 2-Cyclohexyl-2,2-difluoro-N-[2-[2-[[3-(trifluoromethyl)phenyl]sulfonyl]-ethylsulfanyl]-pyridin-3-yl]acetamide], in experiment [2], the EC50 is 22 nM and the Emax was found to be 79%.
